# According to US11666558B2, “Methods of treating intraocular pressure with activators of Tie-2” (EyePoint Pharmaceuticals, Inc., priority 2015, dated 2023):
# “And” between values parts separate entries of the source, which are not always exact repeats. Equal entries are not always repeated. Structures can show the parent of a compound that is named as a salt. Where two headings read alike, the source gives them in different places.
# Assay: Ocular tissue concentrations (aqueous humor, vitreous humor, iris, retina, choroid, cornea) after topical ocular, subcutaneous and intravitreal administration
# Format: in vivo, New Zealand White rabbits
# Conditions: for Average Peak Concentration, Vitreous Humor: solution
# Description: To measure the concentration of Compound 1 in plasma and ocular tissues following topical ocular, subcutaneous, and intravitreal administration, New Zealand White rabbits were administered Compound 1, and plasma and ocular samples were collected at pre-determined time points. Compound 1 formulations were prepared fresh on each day of dosing.
# Ocular tissue samples from both eyes of each animal were collected and weights were recorded. Plasma and ocular tissue sample concentrations of Compound 1 were determined by LC-MS/MS.
# New Zealand White rabbits weighing 2.5 to 3.5 kg were used on this study. Rabbits were housed one per cage. Animals were not fasted and only healthy animals with no ocular illness were used. Two rabbits per group were sacrificed at each of four ocular tissue sampling time points for a total of eight rabbits per group.
# Animals were anesthetized for ocular (topical) and intravitreal dosing following the 12IA7 IACUC protocol. Each rabbit received a bolus dose of test formulation either via topical ocular administration 3 times daily on Days 1 and 2 (at 0, 6, and 12 hours), and once on Day 3 (at 0 hours) into both eyes; via intravitreal administration into both eyes once on Day 1 (at 0 hours); or via subcutaneous administration 2 times daily on Days 1 and 2 (at 0 and 8 hours) and once daily on Day 3 (at 0 hours). Doses were given within an approximately 1 hour window each day where applicable.
# On Day 1, for intravitreal administration, or on Day 3, for topical ocular and subcutaneous administration, at the appropriate ocular tissue collection time points, animals were euthanized and both eyes were enucleated immediately. Following enucleation, each eye was rinsed with phosphate-buffered saline. Ocular tissue samples from both eyes of each animal were collected at predetermined time points and weights were recorded. All the samples were frozen immediately on dry ice, and stored at −60° C. to −80° C. pending bioanalysis.
# An LC-MS/MS method was developed for the determination of Compound 1 in rabbit aqueous tissues (plasma, aqueous and vitreous humor) and solid ocular tissue samples. A pre-study standard curve was analyzed to determine the specificity, range, and lower limit of quantitation of the method. Plasma and tissue homogenate study samples were extracted and analyzed. All the samples were treated identically to the standards.
# One eight-point standard curve was used in each analytical batch. To be accepted, each batch must have had at least five of eight standards with accuracy within ±20% of nominal, except at the lower limit of quantification (LLOQ), where ±25% was acceptable.
# Concentration versus time data is plotted in FIGS. 3-16. All data are expressed as ng/g of the free drug. Samples that were below the limit of quantitation (0.2 ng/mL) were not used in the calculation of averages.
# [1] = Group 1 topical ocular 1.2 mg/eye, 2.0 hr
# [2] = Group 1 topical ocular 1.2 mg/eye, 4.0 hr
# [3] = Group 2 subcutaneous 5 mg/kg, 0.5 hr
# [4] = Group 2 subcutaneous 5 mg/kg, 1.0 hr
# [5] = Group 2 subcutaneous 5 mg/kg, 2.0 hr
# [6] = Group 2 subcutaneous 5 mg/kg, 4.0 hr
# [7] = Group 4 intravitreal 2.5 mg per eye, 6.0 hr
# [8] = Group 4 intravitreal 2.5 mg per eye, 24 hr
# [9] = Group 4 intravitreal 2.5 mg per eye, 48 hr
# [10] = Group 4 intravitreal 2.5 mg per eye, 72 hr
compound,measurement,setting,value
COC(=O)N[C@@H](Cc1ccccc1)C(=O)N[C@@H](Cc1ccc(NS(=O)(=O)O)cc1)c1csc(-c2cccs2)n1 [Compound 1 sodium salt],"Average Peak Concentration, Vitreous Humor",Group 1 topical ocular 0.70 mg/kg/dose,0.61 ng/g
same,"aqueous humor Conc., individual eyes (OD, OS)","Group 1 topical ocular 1.2 mg/eye, 0.5 hr",3.44 ng/mL and 1.78 ng/mL and 12.8 ng/mL
same,"aqueous humor Conc., individual eyes (OD, OS)","Group 1 topical ocular 1.2 mg/eye, 1.0 hr",3.55 ng/mL and 3.05 ng/mL
same,"aqueous humor Conc., individual eyes (OD, OS)",[1],2.46 ng/mL and 14.5 ng/mL and 15.8 ng/mL
same,"vitreous humor Conc., individual eyes (OD, OS)",[1],1.14 ng/mL and 0.950 ng/mL
same,"aqueous humor Conc., individual eyes (OD, OS)",[2],5.48 ng/mL and 5.61 ng/mL and 7.78 ng/mL and 14.1 ng/mL
same,"vitreous humor Conc., individual eyes (OD, OS)",[2],1.09 ng/mL and 2.20 ng/mL and 0.551 ng/mL
same,"Average Peak Concentration, Vitreous Humor",Group 2 subcutaneous 5 mg/kg/dose,0.83 ng/g
same,"aqueous humor Conc., individual eyes (OD, OS)",[3],23.5 ng/mL and 24.6 ng/mL and 18.0 ng/mL and 38.2 ng/mL
same,"vitreous humor Conc., individual eyes (OD, OS)",[3],1.03 ng/mL and 0.537 ng/mL and 0.981 ng/mL
same,"aqueous humor Conc., individual eyes (OD, OS)",[4],4.51 ng/mL and 1.84 ng/mL and 3.22 ng/mL and 3.63 ng/mL
same,"vitreous humor Conc., individual eyes (OD, OS)",[4],0.252 ng/mL and 0.766 ng/mL and 0.442 ng/mL and 0.337 ng/mL
same,"aqueous humor Conc., individual eyes (OD, OS)",[5],0.498 ng/mL and 0.453 ng/mL
same,"vitreous humor Conc., individual eyes (OD, OS)",[5],BLOQ (Below the limit of quantitation (0.2 ng/mL))
same,"aqueous humor Conc., individual eyes (OD, OS)",[6],BLOQ (Below the limit of quantitation (0.2 ng/mL))
same,"vitreous humor Conc., individual eyes (OD, OS)",[6],BLOQ (Below the limit of quantitation (0.2 ng/mL))
same,"aqueous humor Conc., individual eyes (OD, OS)",[7],77100 ng/mL and 75300 ng/mL and 79300 ng/mL
same,"vitreous humor Conc., individual eyes (OD, OS)",[7],1450000 ng/mL and 1480000 ng/mL and 432000 ng/mL
same,"aqueous humor Conc., individual eyes (OD, OS)",[8],5190 ng/mL and 6810 ng/mL
same,"vitreous humor Conc., individual eyes (OD, OS)",[8],295000 ng/mL and 406000 ng/mL and 259000 ng/mL
same,"aqueous humor Conc., individual eyes (OD, OS)",[9],1510 ng/mL and 2330 ng/mL and 1970 ng/mL
same,"vitreous humor Conc., individual eyes (OD, OS)",[9],82300 ng/mL and 68600 ng/mL and 91900 ng/mL
same,"aqueous humor Conc., individual eyes (OD, OS)",[10],23.2 ng/mL and 16.1 ng/mL and 49.7 ng/mL and 49.0 ng/mL
same,"vitreous humor Conc., individual eyes (OD, OS)",[10],13500 ng/mL and 11700 ng/mL and 14100 ng/mL
same,concentration at 6 hr,"New Zealand White, rabbit, aqueous humor, other: intravitreal, 2.5 mg per eye, Group 4 intravitreal 2.5 mg per eye, 6.0 hr, read-out: aqueous humor Average Conc.",80600 ng/g
same,concentration at 6 hr,"New Zealand White, rabbit, aqueous humor, other: intravitreal, 2.5 mg per eye, Group 4 intravitreal 2.5 mg per eye, 6.0 hr, read-out: aqueous humor Conc., individual eyes (OD, OS)",90600 ng/mL
same,concentration at 24 hr,"New Zealand White, rabbit, aqueous humor, other: intravitreal, 2.5 mg per eye, Group 4 intravitreal 2.5 mg per eye, 24 hr, read-out: aqueous humor Average Conc.",9000 ng/g
same,concentration at 24 hr,"New Zealand White, rabbit, aqueous humor, other: intravitreal, 2.5 mg per eye, Group 4 intravitreal 2.5 mg per eye, 24 hr, read-out: aqueous humor Conc., individual eyes (OD, OS)",4700 ng/mL
same,concentration at 48 hr,"New Zealand White, rabbit, aqueous humor, other: intravitreal, 2.5 mg per eye, Group 4 intravitreal 2.5 mg per eye, 48 hr, read-out: aqueous humor Average Conc.",1960 ng/g
same,concentration at 48 hr,"New Zealand White, rabbit, aqueous humor, other: intravitreal, 2.5 mg per eye, Group 4 intravitreal 2.5 mg per eye, 48 hr, read-out: aqueous humor Conc., individual eyes (OD, OS)",2040 ng/mL
same,concentration at 72 hr,"New Zealand White, rabbit, aqueous humor, other: intravitreal, 2.5 mg per eye, Group 4 intravitreal 2.5 mg per eye, 72 hr, read-out: aqueous humor Average Conc.",34.5 ng/g
same,concentration at 0.5 h,"New Zealand White, rabbit, aqueous humor, subcutaneous, 5 mg/kg, Group 2 subcutaneous 5 mg/kg, 0.5 hr, read-out: aqueous humor Average Conc.",26.1 ng/g
same,concentration at 1 h,"New Zealand White, rabbit, aqueous humor, subcutaneous, 5 mg/kg, Group 2 subcutaneous 5 mg/kg, 1.0 hr, read-out: aqueous humor Average Conc.",3.3 ng/g
same,concentration at 2 h,"New Zealand White, rabbit, aqueous humor, subcutaneous, 5 mg/kg, Group 2 subcutaneous 5 mg/kg, 2.0 hr, read-out: aqueous humor Average Conc.",0.72 ng/g
same,concentration at 2 h,"New Zealand White, rabbit, aqueous humor, subcutaneous, 5 mg/kg, Group 2 subcutaneous 5 mg/kg, 2.0 hr, read-out: aqueous humor Conc., individual eyes (OD, OS)",0.581 ng/mL
same,concentration at 0.5 hr,"New Zealand White, rabbit, aqueous humor, topical, 1.2 mg/eye, Group 1 topical ocular 1.2 mg/eye, 0.5 hr, read-out: aqueous humor Average Conc.",45.8 ng/g
same,concentration at 1 hr,"New Zealand White, rabbit, aqueous humor, topical, 1.2 mg/eye, Group 1 topical ocular 1.2 mg/eye, 1.0 hr, read-out: aqueous humor Average Conc.",15 ng/g
same,concentration at 1 hr,"New Zealand White, rabbit, aqueous humor, topical, 1.2 mg/eye, Group 1 topical ocular 1.2 mg/eye, 1.0 hr, read-out: aqueous humor Conc., individual eyes (OD, OS)",4.03 ng/mL
same,concentration at 2 h,"New Zealand White, rabbit, aqueous humor, topical, 1.2 mg/eye, Group 1 topical ocular 1.2 mg/eye, 2.0 hr, read-out: aqueous humor Average Conc.",31.6 ng/g
